Earlier results, collected in US20210338713A1, “Reduction of Pulmonary Inflammation Using Therapeutic Gas Mixtures” (Brain Cancer Research Institute, priority 2020, published 2021).

Key:
ovine model of ARDS = conditions: inhalation, P<0.05
[1] = system: pediatric patients with ARDS
RDS patients = conditions: surviving patients, six months post-treatment, low-dose iNO
[2] = in combination with oxygen
[3] = in vivo

| SMILES | arterial PO2 (ovine model of ARDS) | venous admixture (Qva/QT) (ovine model of ARDS; without altering cardiac output) | pulmonary arterial pressure (PAP) and resistance (ovine model of ARDS; without any systemic hemodynamic effects) | patients with improved oxygenation ([1]; inhaled) | mean pulmonary artery pressure and intrapulmonary shunt ([1]; inhaled, without changing systemic arterial pressure or pulmonary capillary wedge pressure) | survival, patients with ARDS ([1]; low-dose inhaled NO (3 to 10 ppm) for 1 to 24 days, 5 of 10 patients) [%] | survival, non-ARDS patients ([1]; low-dose inhaled NO (3 to 10 ppm) for 1 to 24 days, 7 of 7 patients) [%] | values for select pulmonary function tests versus placebo-treated patients (RDS patients) | concentrations at which xenon exhibits anaesthetic effects [2] | toxic effects on main organs [3] |
| --- | --- | --- | --- | --- | --- | --- | --- | --- | --- | --- |
| [N]=O [nitric oxide] | increase | decrease | decrease | 15 of 17 | lowered | 50 | 100 | significantly better |  |  |
| [Xe] [xenon] |  |  |  |  |  |  |  |  | 10-70 vol. % | does not induce significant toxic effects |
